According to US20260103471A1, “CYCLIC UREA THIAZOLYL COMPOUNDS FOR TREATMENT OF HSV” (Assembly Biosciences, Inc., priority 2022, published 2026):

What follows are compounds tested on HSV-2 G strain (assay: HSV-2 Antiviral Assay (Vero cells, cell viability)). Conditions: Human alphaherpesvirus 2, Vero, 120 h, Vero cells, 160 TCID50 HSV-2 G strain, 5 days, cell viability.
Type: cell-based
Method: Vero cells were cultured in Dulbecco's Modified Eagle Medium (DMVEM) supplemented with […] and 100 units/mL penicillin and streptomycin. The cells were passaged 2-3 times per week to maintain sub-confluent densities.
Vero cells were seeded into 96-well plates at a density of 1.0×10^4 cells per well and allowed to attach overnight. Following attachment, the media was replaced with 50 μL of infection medium (DMEM supplemented with 2% fetal bovine serum and 100 units/mL penicillin and streptomycin). A Tecan D300e digital dispenser was then used to add compounds to the culture using an 8-point 3-fold serial dilution format. The DMSO concentration was normalized to 0.5% for all treatments. Following compound addition, 50 μL of infection medium containing 160 TCID50 HSV-2 G strain was added to the cells and incubated at 37° C. for 5 days. After the incubation, 10 μL/well of WST-8 chromogenic reagent was added and the plates incubated at 37° C. for 3 hours. Following the incubation, cell viability was quantified by measuring the absorbance at 460 nm and 620 nm using a Tecan Infinite M1000 Pro plate reader.

| EC50 [nM] | Structure (SMILES) |
| --- | --- |
| < 100 | Cc1nc(N2CCCN(c3ccc(-c4cc(F)cc5c4ccn5C(F)F)cc3)C2=O)sc1S(N)(=O)=O [Compound 299] |
| < 100 | Cc1nc(N2CCCN(c3ccc(-c4cc(F)ccc4F)cc3)C2=O)sc1S(=O)(=O)NCCO [Compound 388, 2-(3-(2′,5′-difluoro-[1,1′-biphenyl]-4-yl)-2-oxotetrahydropyrimidin-1(2H)-yl)-N-(2-hydroxyethyl)-4-methylthiazole-5-sulfonamide] |
| 100 to 1000 | Cc1nc(N2CCCN(c3ccc(-c4cc(F)ccc4F)cc3)C2=O)sc1S(=O)(=O)N1CCC(N)C1 (stereo not shown) [Compound 397] |
| < 100 | Cc1nc(N2CCCN(c3ccc(-c4cccc5c4OCCO5)cc3)C2=O)sc1S(N)(=O)=O [Compound 249] |
| 1000 to 5000 | Cc1nc(N2CCCN(c3ccc(-n4cnc5ccccc54)cc3)C2=O)sc1S(N)(=O)=O [Compound 94] |
| 100 to 1000 | Cc1nc(N2CCCN(c3ccc(-c4cc(F)c(F)c(F)c4)cc3)C2=O)sc1S(N)(=O)=O [Compound 188] |
| 1000 to 5000 | Cc1nc(N2CCCN(c3ccc(-c4cc(Cl)c(F)cn4)cc3)C2=O)sc1S(N)(=O)=O [Compound 38] |
| 100 to 1000 | Cc1nc(N2CCCN(c3ccc(-c4cccc5c4OCCC5(F)F)cc3)C2=O)sc1S(N)(=O)=O [Compound 267] |
| < 100 | Cc1nc(N2CCCN(c3ccc(-c4cc(Cl)c(Cl)cn4)cc3)C2=O)sc1S(N)(=O)=O [Compound 234] |
| 1000 to 5000 | CN=[S@@](C)(=O)c1sc(N2CCCN(c3ccc(-c4cc(F)ccc4F)cc3)C2=O)nc1C (single isomer, unassigned) [Compound 152] |
| 100 to 1000 | Cc1nc(N2CCCN(c3ccc(-c4scnc4C#N)cc3)C2=O)sc1S(N)(=O)=O [Compound 47] |
| 1000 to 5000 | Cc1nc(N2CCCN(c3ccc(-c4ccnc5ncsc45)cc3)C2=O)sc1S(N)(=O)=O [Compound 272] |
| 100 to 1000 | Cc1nc(N2CCCN(c3ccc(-c4ccccc4F)cc3)C2=O)sc1S(=O)(=O)C(F)F [Compound 412, 1-(5-((difluoromethyl)sulfonyl)-4-methylthiazol-2-yl)-3-(2′-fluoro-[1,1′-biphenyl]-4-yl)tetrahydropyrimidin-2(1H)-one] |
| < 100 | Cc1nc(N2C[C@H](F)CN(c3ccc(-c4cc(F)ccc4F)cc3)C2=O)sc1S(N)(=O)=O (single isomer, unassigned) [Compound 364] |
| < 100 | Cc1nc(N2CCCN(c3ccc(-c4snc5ccc(-c6ccccc6)cc45)cc3)C2=O)sc1S(N)(=O)=O [Compound 309] |
| 1000 to 5000 | Cc1nc(N2CCCN(c3ccc(-c4ccccc4C4COC4)cc3)C2=O)sc1S(N)(=O)=O [Compound 197] |
| < 100 | Cc1nc(N2CCCN(c3ccc(-c4nc(C#N)cs4)cc3)C2=O)sc1S(N)(=O)=O [Compound 48] |

| EC50 [nM] | Structure (SMILES) |
| --- | --- |
| 100 to 1000 | Cc1nc(N2CCCN(c3ccc(-c4ccc(F)cc4)cc3)C2=O)sc1S(N)(=O)=O [Compound 189] |
| < 100 | Cc1nc(N2CCCN(c3ccc(-c4cc(F)ccc4C(C)(F)F)cc3)C2=O)sc1S(N)(=O)=O [Compound 225] |
| 100 to 1000 | Cc1nc(N2CCCN(c3ccc(-c4cc(F)cc5c4c(C#N)cn5C)cc3)C2=O)sc1S(N)(=O)=O [Compound 294] |
| < 100 | Cc1cccc(-c2ccc(N3CCCN(c4nc(C)c(S(N)(=O)=O)s4)C3=O)cc2)n1 [Compound 184] |
| 100 to 1000 | Cc1nc(N2CCCN(c3ccc(-c4cc(-c5cncs5)ccc4F)cc3)C2=O)sc1S(N)(=O)=O [Compound 230] |
| 100 to 1000 | Cc1nc(N2CCCN(c3ccc(-c4cccc(-c5ccnn5C)c4)cc3)C2=O)sc1S(N)(=O)=O [Compound 32] |
| < 100 | Cc1nc(N2CCCN(c3ccc(-c4cccc5cnsc45)cc3)C2=O)sc1S(N)(=O)=O [Compound 258] |
| < 100 | Cc1nc(N2CCCN(c3ccc(-c4cccc(-c5cscn5)c4)cc3)C2=O)sc1S(N)(=O)=O [Compound 229] |
| < 100 | Cc1nc(N2CCCN(c3ccc(-c4cc(C5(C#N)CC5)ccc4F)cc3)C2=O)sc1S(N)(=O)=O [Compound 208] |
| < 100 | Cc1nc(N2CCCCN(c3ccc(-c4cc(F)cc5nsnc45)cc3)C2=O)sc1S(N)(=O)=O [Compound 313] |
| < 100 | Cc1nc(N2CCCN(c3ccc(-c4cccc5c(C)csc45)cc3)C2=O)sc1S(N)(=O)=O [Compound 275] |
| < 100 | COc1ccc(-c2ccc(N3CCCN(c4nc(C)c(S(N)(=O)=O)s4)C3=O)cc2)c2cnn(C)c12 [Compound 58] |
| < 100 | C#Cc1nc(N2CCCN(c3ccc(-c4cc(F)ccc4F)cc3)C2=O)sc1S(N)(=O)=O [Compound 439] |
| < 100 | Cc1nc(N2CCCN(c3ccc(-c4snc5c(F)cc(F)cc45)cc3)C2=O)sc1S(N)(=O)=O [Compound 306] |
| < 100 | Cc1nc(N2CCCN(c3ccc(-c4cccc(-c5cncs5)c4)cc3)C2=O)sc1S(N)(=O)=O [Compound 31] |
| 100 to 1000 | Cc1nc(N2CCCN(c3ccc(-c4nccc(Cl)c4F)cc3)C2=O)sc1S(N)(=O)=O [Compound 37] |
| < 100 | Cc1nc(N2CCCN(c3ccc(-c4cc(F)cc(/C=C/C#N)c4)cc3)C2=O)sc1S(N)(=O)=O [Compound 192] |

The next lines start with the compound.

| Structure (SMILES) | EC50 [nM] |
| --- | --- |
| COCCCNS(=O)(=O)c1sc(N2CCCN(c3ccc(-c4cc(F)cc5nsnc45)cc3)C2=O)nc1C [Compound 419] | < 100 |
| Cc1nc(N2CC(O)CN(c3ccc(-c4cc(F)ccc4F)cc3)C2=O)sc1S(N)(=O)=O (stereo not shown) [Compound 353, 2-(3-(2′,5′-difluoro-[1,1′-biphenyl]-4-yl)-5-hydroxy-2-oxotetrahydropyrimidin-1(2H)-yl)-4-methylthiazole-5-sulfonamide] | < 100 |
| Cc1nc(N2C(=O)N(c3ccc(-c4cc(F)ccc4F)cc3)CCC2C)sc1S(N)(=O)=O (stereo not shown) [Compound 107, 2-(3-(2′,5′-Difluoro-[1,1′-biphenyl]-4-yl)-6-methyl-2-oxotetrahydropyrimidin-1(2H)-yl)-4-methylthiazole-5-sulfonamide] | < 100 |
| COc1c(F)cc(F)cc1-c1ccc(N2CCCN(c3nc(C(F)(F)F)c(S(N)(=O)=O)s3)C2=O)cc1 [Compound 437] | < 100 |
| Cc1nc(N2CCCN(c3ccc(-c4cc(F)ccc4F)cc3)C2=O)sc1S(=O)(=O)NC[C@H](C)CO [Compound 396] | < 100 |
| Cc1nc(N2CC3(CCCC3)CN(c3ccc(-c4cccc5ncsc45)cc3)C2=O)sc1S(N)(=O)=O [Compound 337] | < 100 |
| Cc1nc(N2C[C@@H](C(F)F)CN(c3ccc(-c4cc(F)ccc4F)cc3)C2=O)sc1S(N)(=O)=O (single isomer, unassigned) [Compound 370] | < 100 |
| Cc1nc(N2CC(C(F)F)CN(c3ccc(-c4cc(F)ccc4F)cc3)C2=O)sc1S(N)(=O)=O (stereo not shown) [Compound 349] | < 100 |
| Cc1nc(N2CC(C(F)(F)F)CN(c3ccc(-c4cc(F)ccc4F)cc3)C2=O)sc1S(N)(=O)=O (stereo not shown) [Compound 368] | < 100 |
| Cc1nc(N2CCCCN(c3ccc(-c4cccc5ncsc45)cc3)C2=O)sc1[S@](C)(=N)=O (single isomer, unassigned) [Compound 430] | < 100 |
| Cc1nc(N2CC3(COC3)CN(c3ccc(-c4cc(F)ccc4F)cc3)C2=O)sc1[S@](C)(=N)=O (single isomer, unassigned) [Compound 433] | < 100 |
| NS(=O)(=O)c1sc(N2CCCN(c3ccc(-c4cc(F)cc5nsnc45)cc3)C2=O)nc1C(F)(F)F [Compound 438] | 1000 to 5000 |
| Cc1nc(N2CCCN(c3ccc(-c4cc(C(C)(F)F)cc5c4OCO5)cc3)C2=O)sc1S(N)(=O)=O [Compound 273] | 100 to 1000 |
| Cc1nc(N2CC(C#N)CN(c3ccc(-c4cc(F)ccc4F)cc3)C2=O)sc1S(N)(=O)=O (stereo not shown) [Compound 360, 2-(5-cyano-3-(2′,5′-difluoro-[1,1′-biphenyl]-4-yl)-2-oxotetrahydropyrimidin-1(2H)-yl)-4-methylthiazole-5-sulfonamide] | < 100 |
| COC1CN(c2ccc(-c3cc(F)ccc3F)cc2)C(=O)N(c2nc(C)c(S(N)(=O)=O)s2)C1 (stereo not shown) [Compound 357, 2-(3-(2′,5′-difluoro-[1,1′-biphenyl]-4-yl)-5-methoxy-2-oxotetrahydropyrimidin-1(2H)-yl)-4-methylthiazole-5-sulfonamide] | 1000 to 5000 |
| Cc1nc(N2CC3(COC3)CN(c3ccc(-c4cc(F)cc5nonc45)cc3)C2=O)sc1S(N)(=O)=O [Compound 341] | < 100 |
| COc1ccc(F)cc1-c1ccc(N2CC3(COC3)CN(c3nc(C)c(S(C)(=O)=O)s3)C2=O)cc1 [Compound 435] | < 100 |
| Cc1nc(N2CCCN(c3ccc(-c4cc(F)ccc4F)cc3)C2=O)sc1S(=O)(=O)N1CC2(COC2)C1 [Compound 403] | < 100 |
| Cc1nc(N2CC3(COC3)CN(c3ccc(-c4cc(F)ccc4F)cc3)C2=O)sc1S(C)(=N)=O (stereo not shown) [Compound 431] | < 100 |
| Cc1nc(N2CC[C@H](C)N(c3ccc(-c4cc(F)ccc4F)cc3)C2=O)sc1S(N)(=O)=O (single isomer, unassigned) [Compound 334] | < 100 |
| Cc1nc(N2CC(C)CN(c3ccc(-c4ccccc4F)cc3)C2=O)sc1S(N)(=O)=O (stereo not shown) [Compound 315] | < 100 |
| Cc1nc(N2CCCN(c3ccc(-c4cc(F)ccc4F)cc3)C2=O)sc1S(=O)(=O)NCCCCO [Compound 389] | < 100 |
| COCCCNS(=O)(=O)c1sc(N2CCCN(c3ccc(-c4cc(F)ccc4F)cc3)C2=O)nc1C [Compound 416] | < 100 |

Same assay, conditions: Vero cells, 160 TCID50 HSV-2 G strain, 5 days, cell viability

| EC50 [nM] | Structure (SMILES) |
| --- | --- |
| < 100 | Cc1nc(N2C[C@@H](C#N)CN(c3ccc(-c4cc(F)ccc4F)cc3)C2=O)sc1S(N)(=O)=O (single isomer, unassigned) [Compound 377] |
